Like-named read-outs stand apart in the source and are kept apart here.
Assays:
[1] = tested on: osteoclasts; assay: Assay of bone resorption in vitro (bone slice assay); format: cell-based; conditions: chick embryo bone cells on dentine discs; FIG. 1 (MH2 vs MH3), FIG. 2 (alendronate vs glucoside)
Procedure: Resorption lacunae where identified and quantitated using an Olympus BH2 microscope fitted for incident light microscopy. The plan area of resorption was determined by point counting using a ×10 objective and a drawing tube. The total area of each disc was analyzed.

[2] = given orally; cited from earlier work
[3] = tested on: bone cell suspension, including osteoclasts and other cell types; conditions: FIG. 3, concentrations up to 10^−4M, Sodium Salt
Description: Sterile, devitalized discs of dentine (diameter 4 mm) where prepared and placed in a 96 well tissue culture plate, one disc per well, and pre-wet overnight in α-MEM tissue culture medium supplemented with 10% fetal calf serum. The femora and tibiae where dissected from 18 day chick embryos and transferred into α-MEM culture medium supplemented with 10% fetal calf serum.
The bones were finely minced using a sharp scalpel and the resulting suspension was triturated using a sterile pipette and transferred to a sterile plastic tube. The suspension was allowed to stand for one minute so that fragments of bone and other debris settled and the upper layer containing a bone cell suspension, including osteoclasts and other cell types, was harvested.
Aliquots of this bone cell suspension were added to the culture wells containing the devitalized dentine discs. Cells where allowed to settle for between 2 and 24 hours. The medium was then removed and new medium containing the test reagents was added. Cells where cultured for periods of time up to 72 hours after which time the dentine discs were washed in PBS at 37° C., fixed in 4% glutaraldehyde in 0.2 M sodium cacodylate, and stained for 5 minutes in 1% (w/v) toluidine blue in 0.5% disodium tetraborate. Excess stain was removed by washing in 70% ethanol for one minute. The dentine discs were then washed in tap water and air-dried.

CC(Nc1ccc(O)cc1)(P(=O)(O)O)P(=O)(O)O [MH2, 1-((4-hydroxyphenyl)amino)ethylidene-1,1-diphosphonic acid]
effect on bone resorption (plan area of resorption lacunae on dentine discs) [1]: substantially less effect than MH3

NCCCC(O)(P(=O)(O)O)P(=O)(O)O [FOSAMAX, alendronate sodium]
drug absorbed from the gut, on average [2]: about 0.7%

O=P([O-])(O)C(O)(CCCNC1O[C@H](CO)[C@@H](O)[C@H](O)[C@H]1O)P(=O)(O)O.[Na+] (stereo partly shown) [glucoside, N-glucopyranosyl Alendronate Sodium Salt]
toxicity (cell number) [3]: substantially no toxicity
toxicity (cell number) ([3]; listed as alendronate glycoside): substantially less toxicity than unglycosylated alendronate
